Experimental data published in PMC6435255 (Nature chemistry, 2018).

Assays:
[1] = molecular target: T1, hENT1 (Homo sapiens, UniProt Q99808); format: cell-based; details: PK15-ENT1 cells, combined with rapadocin
T1 sequence (Q99808 1-456): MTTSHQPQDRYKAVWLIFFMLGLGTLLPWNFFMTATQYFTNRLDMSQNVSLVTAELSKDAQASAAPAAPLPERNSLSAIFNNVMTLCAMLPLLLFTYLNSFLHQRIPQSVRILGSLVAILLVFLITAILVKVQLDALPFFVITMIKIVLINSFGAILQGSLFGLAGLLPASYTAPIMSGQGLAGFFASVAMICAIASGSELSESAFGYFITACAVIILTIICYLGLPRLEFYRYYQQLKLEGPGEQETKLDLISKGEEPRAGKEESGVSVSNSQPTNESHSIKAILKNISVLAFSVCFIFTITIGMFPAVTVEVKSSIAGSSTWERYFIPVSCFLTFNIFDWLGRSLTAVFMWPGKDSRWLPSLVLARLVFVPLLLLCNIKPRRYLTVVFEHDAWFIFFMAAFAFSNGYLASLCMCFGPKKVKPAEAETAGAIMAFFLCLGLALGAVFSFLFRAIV

[2] = molecular target: T1, hENT1; assay: Affinity pulldown with biotinylated rapadocin, red blood cell membrane extract; format: binding; details: competitor
[3] = test system: HUVEC; assay: Adenosine; format: cell-based, human
[4] = test system: Id1-Luc luciferase reporter; assay: BMP reporter gene assay; format: cell-based, human; details: Jurkat T cells, 10 µM, 18 h
[5] = molecular target: hENT1 (Homo sapiens, UniProt P62942+Q99808); assay: GST-FKBP12 affinity pulldown, red blood cell membrane extract; format: binding; details: competitor
Chain of hENT1 (Homo sapiens, UniProt P62942+Q99808) (P62942 whole entry, one chain of several): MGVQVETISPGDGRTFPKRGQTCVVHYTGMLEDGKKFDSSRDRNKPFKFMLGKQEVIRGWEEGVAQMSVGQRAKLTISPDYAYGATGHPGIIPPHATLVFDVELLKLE

| antagonism of rapadocin inhibition of hENT1-mediated thymidine uptake [1] | competition of hENT1 binding of the biotin-rapadocin probe [2] | activation of the Id1-Luc reporter gene [4] | competition of GST-FKBP12-rapadocin association with hENT1 [5] | Structure (SMILES) | IC50, nucleoside uptake [3] |
| --- | --- | --- | --- | --- | --- |
| did not antagonize |  |  |  | COc1ccc(-c2ccc3c(N4CCOC[C@@H]4C)nc(N4CCOC[C@@H]4C)nc3n2)cc1CO [AZD8055] |  |
| antagonize | not appreciably | activated the Id1-Luc reporter gene | sensitive to competition | C=CC[C@@H]1/C=C(\C)C[C@H](C)C[C@H](OC)[C@H]2O[C@@](O)(C(=O)C(=O)N3CCCC[C@H]3C(=O)O[C@H](/C(C)=C/[C@@H]3CC[C@@H](O)[C@H](OC)C3)[C@H](C)[C@@H](O)CC1=O)[C@H](C)C[C@@H]2OC [FK506] | low micromolar range |
| antagonize | not appreciably | activated the Id1-Luc reporter gene | sensitive to competition | CO[C@H]1C[C@@H]2CC[C@@H](C)[C@@](O)(O2)C(=O)C(=O)N2CCCC[C@H]2C(=O)O[C@H]([C@H](C)C[C@@H]2CC[C@@H](O)[C@H](OC)C2)CC(=O)[C@H](C)/C=C(\C)[C@@H](O)[C@@H](OC)C(=O)[C@H](C)C[C@H](C)/C=C/C=C/C=C/1C [rapamycin] | low micromolar range |
